# Results as given in article PMC9029089, “1,5-Disubstituted Acylated 2-Amino-4,5-dihydroimidazoles as a New Class of Retinoic Acid Receptor–Related Orphan Receptor (ROR) Inhibitors” (International Journal of Molecular Sciences, 2022).
# Where two headings read alike, the source gives them in different places.
# Legend:
# Type in all cases: cell-based
# RORβ = biological target: T1, RORβ (Rattus norvegicus, UniProt P45446); assay: Gal4-RORβ-LBD UAS-luciferase reporter assay in TRex-CHO-K1 cells (doxycycline-stimulated)
# T1 construct: rRORβ (Pro 205-end); expressed in transfected cells
# T1 sequence (P45446 205-459 isoform P45446-1): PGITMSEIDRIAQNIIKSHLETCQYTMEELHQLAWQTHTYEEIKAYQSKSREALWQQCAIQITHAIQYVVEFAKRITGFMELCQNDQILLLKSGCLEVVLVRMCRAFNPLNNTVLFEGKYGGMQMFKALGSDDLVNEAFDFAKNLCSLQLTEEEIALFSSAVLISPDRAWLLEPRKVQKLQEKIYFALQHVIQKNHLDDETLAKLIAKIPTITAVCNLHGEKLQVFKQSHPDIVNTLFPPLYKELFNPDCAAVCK
# From the text: To investigate the transcriptional activity of all three RORs, we generated stable cell lines expressing an UAS-driven luciferase reporter together with the corresponding Gal4-DNA binding domain fused to the ligand binding domains (LBDs) of mRORγ (Pro-261-end), hRORα (Pro-211-end), or rRORβ (Pro 205-end). The Gal4-DBD-ROR-LBD fusion proteins were subcloned in the pcDNA4/TO expression vector (Thermo Scientific) and transfected into TRex-CHO-K1 cells (Thermo Scientific) for tetracycline-controlled expression of the corresponding ROR proteins. Transfected cells were selected with hygromycin and Zeocin and individual clones for each of the Gal4-RORγ, Gal4-RORα, and Gal4-RORβ cell lines were isolated using a standard serial dilution protocol. Clones with the highest doxycycline-dependent stimulation of luciferase activity were selected for all functional experiments. All cell lines were maintained in complete Ham’s F12 medium containing 10% fetal bovine serum (FBS), 10 µg/mL blasticidine, 100 µg/mL hygromycin, and 100 µg/mL Zeocin and were used within 2 months of culture without any loss of doxycycline-dependent stimulation of luciferase activity.
# (§1) For screening FIU libraries, cells were resuspended in Ham’s F-12 assay medium containing 2% charcoal-treated FBS and no selection drugs. Ten thousand cells per well were seeded in 30 µL of assay medium in 384 white plates with clear bottom (Greiner). Cells were allowed to attach for 2 h, followed by compound treatment and stimulation with 20 ng/mL doxycycline for an additional 16–20 h. Appropriate solvent controls, negative controls with no doxycycline, and blanks with no cells were included in every plate. Prior to measuring luciferase activity, 6 µL of 0.15 mg/mL resazurin (Cayman Chemical) in PBS were added and cells were incubated for 1 h at 37 °C. Fluorescence intensity was detected at 545 nm excitation/590 nm emission using a CLARIOstar reader (BMGLabtech) as a measure of cell viability, to identify any potential cytotoxic effect of test compounds and mixtures. Following the resazurin assay, the medium was removed and 20 µL of BriteLite-Plus luciferase reagent (Perking Elmer) were added; luminescence was measured in a CLARIOstar reader using a 384 aperture spoon and a 0.1 sec measuring time interval.
# (§2) Luminescence was normalized by the fluorescence intensity and the percentage of inhibition was calculated with respect to control cells stimulated with doxycycline in the presence of solvent control (0.1% DMF). All primary screens with individual compounds were performed in triplicate with a final concentration of 5 µg/mL. […] IC50 values were calculated using GraphPrism (GraphPad software).
# RORγ [1] = biological target: T2, RORγ (Mus musculus, UniProt P51450); assay: Gal4-RORγ-LBD UAS-luciferase reporter assay in TRex-CHO-K1 cells (doxycycline-stimulated)
# T2 construct: mRORγ (Pro-261-end); expressed in transfected cells
# T2 sequence (P51450 261-516 limits assumed): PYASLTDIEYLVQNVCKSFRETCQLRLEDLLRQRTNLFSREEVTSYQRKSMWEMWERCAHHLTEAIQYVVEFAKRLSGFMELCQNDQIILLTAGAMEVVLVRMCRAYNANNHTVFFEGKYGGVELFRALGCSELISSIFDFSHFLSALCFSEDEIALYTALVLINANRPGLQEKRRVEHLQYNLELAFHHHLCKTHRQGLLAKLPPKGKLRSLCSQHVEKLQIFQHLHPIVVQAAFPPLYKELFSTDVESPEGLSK
# From the text: (§3) The Gal4-DBD-ROR-LBD fusion proteins were subcloned in the pcDNA4/TO expression vector (Thermo Scientific) and transfected into TRex-CHO-K1 cells (Thermo Scientific) for tetracycline-controlled expression of the corresponding ROR proteins. Transfected cells were selected with hygromycin and Zeocin and individual clones for each of the Gal4-RORγ, Gal4-RORα, and Gal4-RORβ cell lines were isolated using a standard serial dilution protocol. Clones with the highest doxycycline-dependent stimulation of luciferase activity were selected for all functional experiments.
# as §1, with “Ten thousand cells per well were seeded in 30 µL of assay medium in 384 white plates with clear bottom (Greiner).” left out, “mixtures.” for “mixtures. Following the resazurin assay, the medium was removed and 20 µL of BriteLite-Plus luciferase reagent (Perking Elmer) were added; luminescence was measured in a CLARIOstar reader using a 384 aperture spoon and a 0.1 sec measuring time interval.”
# as §2
# RORγ [2] = biological target: T2, RORγ; assay: as above; conditions: for inhibition at 4 µM: T-REx-CHO-K1, library 2520, RORγ cells, read-out: % Inhibition at 4 μM (N=3); for % Inhibition at 4 μM (N=3): library 2520, RORγ cells
# RORα = biological target: T3, RORα (Homo sapiens, UniProt P35398); assay: Gal4-RORα-LBD UAS-luciferase reporter assay in TRex-CHO-K1 cells (doxycycline-stimulated)
# T3 construct: hRORα (Pro-211-end); expressed in transfected cells
# T3 sequence (P35398 266-523): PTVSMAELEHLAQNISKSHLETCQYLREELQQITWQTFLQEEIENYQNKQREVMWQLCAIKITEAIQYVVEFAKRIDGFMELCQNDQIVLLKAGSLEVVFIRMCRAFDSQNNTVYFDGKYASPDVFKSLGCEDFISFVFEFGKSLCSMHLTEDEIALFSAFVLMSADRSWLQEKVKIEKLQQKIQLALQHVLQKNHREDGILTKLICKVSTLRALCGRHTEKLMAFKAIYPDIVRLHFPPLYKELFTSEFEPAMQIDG
# From the text: as §3
# as §1, with “Ten thousand cells per well were seeded in 30 µL of assay medium in 384 white plates with clear bottom (Greiner).” left out, “mixtures.” for “mixtures. Following the resazurin assay, the medium was removed and 20 µL of BriteLite-Plus luciferase reagent (Perking Elmer) were added; luminescence was measured in a CLARIOstar reader using a 384 aperture spoon and a 0.1 sec measuring time interval.”
# as §2
# [3] = IC50 (μM, N=4) ROR-Beta, library 2520
# [4] = IC50 (μM, N=4) ROR-Gamma, library 2520
# [5] = RORγ : IC50, Figure 6, confirmatory experiment, N = 4
# [6] = IC50 (μM, N=4) ROR-Alpha, library 2520
# [7] = RORα : IC50, Figure 6, confirmatory experiment, N = 4
# [8] = IC50 (μM) (N=4) RORβ, individual controls of library 1295, second confirmatory dose response, Figure 2
# [9] = T-REx-CHO-K1, individual controls 1295.201-307, 5 μg/ml, triplicate, read-out: % Inhibition RORγ 5 μg/ml
# [10] = individual controls of library 1295, second confirmatory dose response, Figure 2
# [11] = IC50 (μM) (N=4) RORα, individual controls of library 1295, second confirmatory dose response, Figure 2
# [12] = read-out: IC50 (μM, N=4) ROR-Beta, library 2520
# [13] = read-out: IC50 (μM, N=4) ROR-Gamma, library 2520
# [14] = read-out: IC50 (μM, N=4) ROR-Alpha, library 2520
# [15] = IC50 (μM) (N=4) RORγ, individual controls of library 1295, second confirmatory dose response, Figure 2
# [16] = T-REx-CHO-K1, read-out: % Inhibition RORγ 5 μg/ml
IC50 (RORβ; [8]) [µM],IC50 (RORα; [11]) [µM],IC50 (RORβ; [12]) [µM],IC50 (RORγ [1]; [13]) [µM],% Inhibition at 4 μM (N=3) (RORγ [2]) [%],IC50 (RORα; [14]) [µM],SMILES,other results
–,–,–,–,–,–,CCC(C(=O)NC1=NC[C@H](Cc2ccccc2)N1CCC(C)c1ccccc1)c1ccccc1 (some centres unmarked) [2520.31],IC50 (RORβ; [3]): 5.5 ± 0.3 µM; IC50 (RORγ [1]; [4]): 3.95 ± 0.3 µM; IC50 (RORγ [1]; [5]): 3.9 ± 0.3 µM; inhibition at 4 µM (RORγ [2]): 70.5%; IC50 (RORα; [6]): 6.82 ± 0.4 µM; IC50 (RORα; [7]): 6.8 ± 0.4 µM
12.8 ± 2.7,12.7 ± 0.4,–,–,–,–,O=C(CCc1ccccc1)NC1=NC[C@H](Cc2ccccc2)N1CCc1ccccc1 [1295.289],inhibition at 5 µg/mL (RORγ [1]; [9]): 83.1%; IC50 (RORγ [1]; [10]): 7 ± 2.3 µM
–,–,3.66 ± 0.3,4.69 ± 0.2,43.6,5.97 ± 0.2,CCC(C(=O)NC1=NCC(C(C)CC)N1CC1CCCCC1)c1ccccc1 (mixture of isomers) [2520.15],–
6.7 ± 0.3,7.4 ± 0.2,–,–,–,–,CC(CC(=O)NC1=NC[C@H](Cc2ccccc2)N1CCc1ccccc1)c1ccccc1 (some centres unmarked) [1295.274],IC50 (RORγ [1]; [15]): 4.8 µM; inhibition at 5 µg/mL (RORγ [1]; [16]): 105%; selectivity towards RORγ over RORα and RORβ (RORγ [1]; from IC50 values in reporter cells): slightly more selective than RORα/β
17.1 ± 2.6,15.3 ± 1.7,–,–,–,–,O=C(Cc1ccccc1)NC1=NC[C@H](Cc2ccccc2)N1CCC1CCCCC1 [1295.261],IC50 (RORγ [1]; [15]): 17.2 ± 1.6 µM; inhibition at 5 µg/mL (RORγ [1]; [16]): 95.9%
–,–,–,–,–,–,CCOc1ccc(C[C@H]2CN=C(NC(=O)C(CC)c3ccccc3)N2CC2CCCCC2)cc1 (some centres unmarked) [2520.39],"IC50 (RORβ; Figure 6, confirmatory experiment, N = 4, read-out: RORβ : IC50): 5.3 ± 0.4 µM; IC50 (RORβ; [3]): 5.34 ± 0.4 µM; IC50 (RORγ [1]; [4]): 4.36 ± 0.2 µM; IC50 (RORγ [1]; [5]): 4.3 ± 0.2 µM; inhibition at 4 µM (RORγ [2]): 73.2%; IC50 (RORα; [6]): 6.36 ± 0.3 µM; IC50 (RORα; [7]): 6.3 ± 0.3 µM"
10.4 ± 0.8,10.1 ± 0.4,–,–,–,–,O=C(Cc1ccccc1)NC1=NC[C@H](Cc2ccccc2)N1CCCC1CCCCC1 [1295.268],inhibition at 5 µg/mL (RORγ [1]; [16]): 103%; IC50 (RORγ [1]; [10]): 6.2 ± 0.6 µM
–,–,7.3 ± 0.8,7.55 ± 0.5,67.6,10.3 ± 0.4,CCC(C(=O)NC1=NCC(Cc2ccc3ccccc3c2)N1CCC1CC2CCC1C2)c1ccccc1 (mixture of isomers) [2520.11],–
14.2 ± 3.6,–,–,–,–,–,O=C(NC1=NC[C@H](Cc2ccccc2)N1CCc1ccccc1)C1(c2ccccc2)CC1 [1295.272],inhibition at 5 µg/mL (RORγ [1]; [9]): 96%; IC50 (RORγ [1]; [10]): 8 ± 1 µM; IC50 (RORα; [10]): 9.8 ± 0.5 µM
–,–,4.89 ± 0.3,4.8 ± 0.2,97.7,6.61 ± 0.3,CCC(C(=O)NC1=NCC(Cc2ccccc2)N1CC1CCCCC1)c1ccccc1 (mixture of isomers) [2520.27],–
–,–,5.46 ± 0.3,5.31 ± 0.2,67.3,5.82 ± 0.3,CCOc1ccc(CC2CN=C(NC(=O)Cc3ccc(OC)cc3)N2CCC(C)c2ccccc2)cc1 (mixture of isomers) [2520.46],–
